Results reported in patent US20070191935A1, “Drug Delivery Stent with Extended In Vivo Drug Release” (Conor Medsystems, Inc., priority 2006, published 2007).

What was measured:
[1] = in vivo paclitaxel release from stent (explanted stents, total drug load by HPLC)
From the text: The measurement of in vivo paclitaxel release from a stent can be performed according to the following Example.
Stents are implanted in a porcine model and explanted at selected time points by removing the entire artery section. The expanded stents are labeled and frozen. The tissue is removed from the stent by slicing the tissue on the outside of the stent lengthwise, inverting the tissue, and removing the tissue by cutting and turning the tissue inside out. The stent may still be covered by a tough elastic membrane which is then removed by splitting the membrane and peeling it off the stent. For longer time points, there will also be a tub of tissue inside the stent. This tube is separated from the stent with tweezers, turned inside out and pulled out of the stent.
The elution rates of drug from the examples are determined in a standard sink condition experiment.
The total drug load (TDL) of paclitaxel from a stent is determined by extracting all the polymer and drug from the stent in a solvent such as dimethyl sulfoxide (DMSO) or acetonitrile. The amount of paclitaxel in a solution sample is determined by High Pressure Liquid Chromatography (HPLC).
The in vivo release kinetic (RK) for paclitaxel from a stent is determined by running the TDL for multiple explanted time points. The TDL for the explanted samples is subtracted from the TDL of an unimplanted stent to determine the amount of paclitaxel released at each of the explanted time points.

[2] = test system: in stent neointimal proliferation; experiment: clinical trials, in stent neointimal proliferation; conditions: in vivo release greater than 60 days from stent

in vivo release of the paclitaxel on the stent in the first 30 days after implantation ([1]; first 30 days after implantation): not more than 40% | complete release of the entire dose of paclitaxel loaded on the stent ([1]; in vivo): ≤ 8 months | time until all the drug loaded on the stent is released ([1]; in vivo, FIG. 4): 90 to 180 days | release rate after day one ([1]; in vivo, after day one, continues for up to about 90 days): under 0.1 μg per day
Compound: CC(=O)O[C@H]1C(=O)[C@@]2(C)[C@H]([C@H](OC(=O)c3ccccc3)[C@]3(O)C[C@H](OC(=O)[C@H](O)[C@@H](NC(=O)c4ccccc4)c4ccccc4)C(C)=C1C3(C)C)[C@]1(OC(C)=O)CO[C@@H]1C[C@@H]2O [paclitaxel]
in stent neointimal proliferation, longer in vivo release vs more rapid release of the same dosage [2]: lower in stent neointimal proliferation than the more rapid release of the same dosage
